{
  "source": "patent US20250302746A1",
  "about": "“METHOD FOR PRODUCING EMULSIFIED COMPOSITION” (Daicel Corporation, priority 2022, published 2025)",
  "key": {"[1]": {"test": "Test Example 4: transmittance of emulsified composition (660 nm, optical path 10 mm)", "format": "physicochemical", "conditions": "balance glycerol, heated 120° C. 3 min, 15000 rpm", "description": "(§1) The transmittance of the emulsified composition produced in this example was determined as a transmittance for light having a wave length of 660 nm at a measurement optical path length of 10 mm using an ultraviolet-visible spectrophotometer UV-1800 (manufactured by Shimadzu Corporation). In the following test, a case where the transmittance was less than 40% was indicated by “C”, a case where the transmittance was 40% or greater and less than 80% was indicated by “B”, and a case where the transmittance was 80% or greater was indicated by “A”.\n(§2) A solution having a composition of parts by weight shown in Table 4 (a solution in which the balance is glycerol and the total is 100 parts by weight) was prepared and heated at 120° C. for 3 minutes using a block heater. During being heated, the solution was mixed using a polytron homogenizer at 15000 rpm. Thereafter, the solution was allowed to stand at room temperature (about 25° C.) and the temperature of the solution was lowered to room temperature (about 25° C.) to produce an emulsified composition, and the transmittance was measured."}, "[2]": {"test": "Test Example 1: transmittance of emulsified composition (660 nm, optical path 10 mm)", "format": "physicochemical", "conditions": "balance glycerol, 10000 rpm", "description": "as §1\nas §2, with “1” for “4”, “a heating temperature shown in Table 1” for “120° C.”, “10000” for “15000”"}, "[3]": {"test": "Test Example 2: transmittance of emulsified composition (660 nm, optical path 10 mm)", "format": "physicochemical", "conditions": "balance glycerol, heated 120° C. 3 min, 15000 rpm", "description": "as §1\nas §2, with “2” for “4”"}, "[4]": {"test": "Test Example 3: transmittance of emulsified composition (660 nm, optical path 10 mm)", "format": "physicochemical", "conditions": "balance glycerol, 15000 rpm", "description": "as §1\nas §2, with “3” for “4”, “a heating temperature shown in Table 3” for “120° C.”"}, "[5]": {"conditions": "cited from earlier work"}, "[6]": {"conditions": "urolithin 0.5, RYOTO polyglyester L-7D (HLB 17.0) 50 parts by weight"}, "[7]": {"conditions": "Urolithin A 0.1, Decaglyn 1-LF (HLB 15.5) 5 parts by weight, heated 100° C. 3 min"}, "[8]": {"conditions": "Urolithin A 0.1, Decaglyn 1-LF (HLB 15.5) 5 parts by weight, heated 120° C. 3 min"}, "[9]": {"conditions": "Urolithin A 0.1, RYOTO polyglyester L-7D (HLB 17.0) 5 parts by weight, heated 100° C. 3 min"}, "[10]": {"conditions": "Urolithin A 0.1, RYOTO polyglyester L-7D (HLB 17.0) 5 parts by weight, heated 120° C. 3 min"}, "[11]": {"conditions": "urolithin 0.1, RYOTO polyglyester L-7D (HLB 17.0) 50 parts by weight"}},
  "data": [
    {"molecule": "O=c1oc2cc(O)ccc2c2cc(O)ccc12", "note": "[Isourolithin A, isourolithin A]", "values": [
      {"measurement": "Transmittance results", "setting": "[1]; [6]", "value": "B (the transmittance was 40% or greater and less than 80%)"}
    ]},
    {"molecule": "O=c1oc2cc(O)ccc2c2ccc(O)cc12", "note": "[Urolithin A, urolithin A]", "values": [
      {"measurement": "Transmittance results", "setting": "[2]; Urolithin A 0.1, Decaglyn 1-LF (HLB 15.5) 5 parts by weight, heated 80° C. 3 min", "value": "C (the transmittance was less than 40%)"},
      {"measurement": "Transmittance results", "setting": "[2]; [7]", "value": "C (the transmittance was less than 40%)"},
      {"measurement": "Transmittance results", "setting": "[2]; [8]", "value": "B (the transmittance was 40% or greater and less than 80%)"},
      {"measurement": "Transmittance results", "setting": "[2]; Urolithin A 0.1, Decaglyn 1-MF (HLB 14.0) 5 parts by weight, heated 80° C. 3 min", "value": "C (the transmittance was less than 40%)"},
      {"measurement": "Transmittance results", "setting": "[2]; Urolithin A 0.1, Decaglyn 1-MF (HLB 14.0) 5 parts by weight, heated 100° C. 3 min", "value": "C (the transmittance was less than 40%)"},
      {"measurement": "Transmittance results", "setting": "[2]; Urolithin A 0.1, Decaglyn 1-MF (HLB 14.0) 5 parts by weight, heated 120° C. 3 min", "value": "B (the transmittance was 40% or greater and less than 80%)"},
      {"measurement": "Transmittance results", "setting": "[2]; Urolithin A 0.1, Decaglyn 1-OVF (HLB 12.0) 5 parts by weight, heated 80° C. 3 min", "value": "C (the transmittance was less than 40%)"},
      {"measurement": "Transmittance results", "setting": "[2]; Urolithin A 0.1, Decaglyn 1-OVF (HLB 12.0) 5 parts by weight, heated 100° C. 3 min", "value": "C (the transmittance was less than 40%)"},
      {"measurement": "Transmittance results", "setting": "[2]; Urolithin A 0.1, Decaglyn 1-OVF (HLB 12.0) 5 parts by weight, heated 120° C. 3 min", "value": "B (the transmittance was 40% or greater and less than 80%)"},
      {"measurement": "Transmittance results", "setting": "[2]; Urolithin A 0.1, RYOTO polyglyester L-7D (HLB 17.0) 5 parts by weight, heated 80° C. 3 min", "value": "C (the transmittance was less than 40%)"},
      {"measurement": "Transmittance results", "setting": "[2]; [9]", "value": "C (the transmittance was less than 40%)"},
      {"measurement": "Transmittance results", "setting": "[2]; [10]", "value": "A (the transmittance was 80% or greater)"},
      {"measurement": "Transmittance results", "setting": "[2]; Urolithin A 0.1, RYOTO polyglyester O-15D (HLB 13.0) 5 parts by weight, heated 80° C. 3 min", "value": "C (the transmittance was less than 40%)"},
      {"measurement": "Transmittance results", "setting": "[2]; Urolithin A 0.1, RYOTO polyglyester O-15D (HLB 13.0) 5 parts by weight, heated 100° C. 3 min", "value": "C (the transmittance was less than 40%)"},
      {"measurement": "Transmittance results", "setting": "[2]; Urolithin A 0.1, RYOTO polyglyester O-15D (HLB 13.0) 5 parts by weight, heated 120° C. 3 min", "value": "B (the transmittance was 40% or greater and less than 80%)"},
      {"measurement": "Transmittance results", "setting": "[2]; Urolithin A 0.1, RYOTO polyglyester O-50D (HLB 7) 5 parts by weight, heated 80° C. 3 min", "value": "C (the transmittance was less than 40%)"},
      {"measurement": "Transmittance results", "setting": "[2]; Urolithin A 0.1, RYOTO polyglyester O-50D (HLB 7) 5 parts by weight, heated 100° C. 3 min", "value": "C (the transmittance was less than 40%)"},
      {"measurement": "Transmittance results", "setting": "[2]; Urolithin A 0.1, RYOTO polyglyester O-50D (HLB 7) 5 parts by weight, heated 120° C. 3 min", "value": "C (the transmittance was less than 40%)"},
      {"measurement": "Transmittance results", "setting": "[2]; Urolithin A 0.1, Sugar ester S-1170 (HLB about 11) 5 parts by weight, heated 80° C. 3 min", "value": "C (the transmittance was less than 40%)"},
      {"measurement": "Transmittance results", "setting": "[2]; Urolithin A 0.1, Sugar ester S-1170 (HLB about 11) 5 parts by weight, heated 100° C. 3 min", "value": "C (the transmittance was less than 40%)"},
      {"measurement": "Transmittance results", "setting": "[2]; Urolithin A 0.1, Sugar ester S-1170 (HLB about 11) 5 parts by weight, heated 120° C. 3 min", "value": "C (the transmittance was less than 40%)"},
      {"measurement": "Transmittance results", "setting": "[3]; Urolithin A 0.2, Decaglyn 1-LF (HLB 15.5) 5 parts by weight", "value": "C (the transmittance was less than 40%)"},
      {"measurement": "Transmittance results", "setting": "[3]; Urolithin A 0.2, Decaglyn 1-LF (HLB 15.5) 10 parts by weight", "value": "B (the transmittance was 40% or greater and less than 80%)"},
      {"measurement": "Transmittance results", "setting": "[3]; Urolithin A 0.2, Decaglyn 1-LF (HLB 15.5) 50 parts by weight", "value": "A (the transmittance was 80% or greater)"},
      {"measurement": "Transmittance results", "setting": "[3]; Urolithin A 0.2, RYOTO polyglyester L-7D (HLB 17.0) 5 parts by weight", "value": "C (the transmittance was less than 40%)"},
      {"measurement": "Transmittance results", "setting": "[3]; Urolithin A 0.2, RYOTO polyglyester L-7D (HLB 17.0) 10 parts by weight", "value": "B (the transmittance was 40% or greater and less than 80%)"},
      {"measurement": "Transmittance results", "setting": "[3]; Urolithin A 0.2, RYOTO polyglyester L-7D (HLB 17.0) 50 parts by weight", "value": "A (the transmittance was 80% or greater)"},
      {"measurement": "Transmittance results", "setting": "[3]; Urolithin A 0.5, RYOTO polyglyester L-7D (HLB 17.0) 50 parts by weight", "value": "A (the transmittance was 80% or greater)"},
      {"measurement": "Transmittance results", "setting": "[4]; [7]", "value": "C (the transmittance was less than 40%)"},
      {"measurement": "Transmittance results", "setting": "[4]; Urolithin A 0.1, Decaglyn 1-LF (HLB 15.5) 5 parts by weight, heated 105° C. 3 min", "value": "C (the transmittance was less than 40%)"},
      {"measurement": "Transmittance results", "setting": "[4]; [8]", "value": "B (the transmittance was 40% or greater and less than 80%)"},
      {"measurement": "Transmittance results", "setting": "[4]; Urolithin A 0.1, Decaglyn 1-LF (HLB 15.5) 50 parts by weight, heated 100° C. 3 min", "value": "C (the transmittance was less than 40%)"},
      {"measurement": "Transmittance results", "setting": "[4]; Urolithin A 0.1, Decaglyn 1-LF (HLB 15.5) 50 parts by weight, heated 105° C. 3 min", "value": "A (the transmittance was 80% or greater)"},
      {"measurement": "Transmittance results", "setting": "[4]; Urolithin A 0.1, Decaglyn 1-LF (HLB 15.5) 50 parts by weight, heated 120° C. 3 min", "value": "A (the transmittance was 80% or greater)"},
      {"measurement": "Transmittance results", "setting": "[4]; [9]", "value": "C (the transmittance was less than 40%)"},
      {"measurement": "Transmittance results", "setting": "[4]; Urolithin A 0.1, RYOTO polyglyester L-7D (HLB 17.0) 5 parts by weight, heated 105° C. 3 min", "value": "C (the transmittance was less than 40%)"},
      {"measurement": "Transmittance results", "setting": "[4]; [10]", "value": "A (the transmittance was 80% or greater)"},
      {"measurement": "Transmittance results", "setting": "[4]; Urolithin A 0.1, RYOTO polyglyester L-7D (HLB 17.0) 50 parts by weight, heated 100° C. 3 min", "value": "C (the transmittance was less than 40%)"},
      {"measurement": "Transmittance results", "setting": "[4]; Urolithin A 0.1, RYOTO polyglyester L-7D (HLB 17.0) 50 parts by weight, heated 105° C. 3 min", "value": "A (the transmittance was 80% or greater)"},
      {"measurement": "Transmittance results", "setting": "[4]; Urolithin A 0.1, RYOTO polyglyester L-7D (HLB 17.0) 50 parts by weight, heated 120° C. 3 min", "value": "A (the transmittance was 80% or greater)"},
      {"measurement": "oil solubility", "setting": "[5]; background statement", "value": "low"},
      {"measurement": "solubility in high-temperature vegetable oil or the like", "setting": "[5]; background statement", "value": "not soluble"},
      {"measurement": "solubility in water", "setting": "[5]; water at 30° C. (Patent Document 4)", "value": "about 3.5 mg/L"}
    ]},
    {"molecule": "O=c1oc2cc(O)ccc2c2ccccc12", "note": "[Urolithin B, urolithin B]", "values": [
      {"measurement": "Transmittance results", "setting": "[1]; urolithin 1.0, RYOTO polyglyester L-7D (HLB 17.0) 50 parts by weight", "value": "A (the transmittance was 80% or greater)"}
    ]},
    {"molecule": "O=c1oc2cc(O)ccc2c2cc(O)c(O)cc12", "note": "[Urolithin C, urolithin C]", "values": [
      {"measurement": "Transmittance results", "setting": "[1]; [11]", "value": "A (the transmittance was 80% or greater)"}
    ]},
    {"molecule": "O=c1oc2c(O)c(O)ccc2c2c(O)c(O)c(O)cc12", "note": "[Urolithin M5, urolithin M5]", "values": [
      {"measurement": "Transmittance results", "setting": "[1]; [11]", "value": "A (the transmittance was 80% or greater)"}
    ]},
    {"molecule": "O=c1oc2cc(O)ccc2c2c(O)c(O)c(O)cc12", "note": "[Urolithin M6, urolithin M6]", "values": [
      {"measurement": "Transmittance results", "setting": "[1]; [6]", "value": "A (the transmittance was 80% or greater)"}
    ]},
    {"molecule": "O=c1oc2cc(O)ccc2c2c(O)cc(O)cc12", "note": "[Urolithin M7, urolithin M7]", "values": [
      {"measurement": "Transmittance results", "setting": "[1]; [11]", "value": "A (the transmittance was 80% or greater)"}
    ]},
    {"molecule": "urolithin M8", "values": [
      {"measurement": "Transmittance results", "setting": "[1]; [6]", "value": "A (the transmittance was 80% or greater)"}
    ]}
  ]
}
